Experimental data from patent US10525060B2, “HCK as a therapeutic target in MYD88 mutated diseases” (Dana-Farber Cancer Institute, Inc., priority 2016, dated 2020).
Read-outs that look alike come from different tables or passages of the source.

Assays:
LYN [1] = target: T1, LYN (Homo sapiens, UniProt P07948); test: KiNativ profiling in WM cell lines; type: binding; design: endogenous in cells; host or cells: BCWM.1 and MWCL-1 WM cell lines; details: for inhibition at 1 µM: read-out: KiNativ profiling, LYN inhibition (labeling site Lys1); for KiNativ profiling, LYN inhibition (labeling site Lys1): 1 μM
FYN, SRC, YES = test: KiNativ profiling in WM cell lines; type: binding, Homo sapiens; details: 1 μM
BTK = target: T2, BTK (Homo sapiens, UniProt Q06187); test: Kinase active-site inhibition assay (ATP-biotin probe, western blot) in BCWM.1 cells; type: binding; details: BCWM.1 WM cells, pre-treated 1 hour, various concentrations
T2 construct: endogenous in cells; host or cells: BCWM.1 (A4); BCWM.1, MWCL-1, TMD-8 (A7)
Experimental: (§1) Cells then washed with PBS twice, and lysed with co-IP buffer (Invitrogen, Grand Island N.Y.). Two mg of protein from lysed cells was then incubated with […] of Pierce Streptavidin Magnetic Beads (Thermo Fisher Scientific, Cambridge Mass.) at 4° C. for 1 hour, then washed with TBST (0.1% Tween-20) thrice, and proteins eluted with SDS-PAGE sample buffer. […] Cells then were lysed and kinases were pulled down with ATP-biotin using Pierce™ Kinase Enrichment Kit (Thermo Fisher Scientific) per manufacturer's instructions. Kinases were eluted with SDS-PAGE sample buffer and detected by western blot.

SRC = target: T3, SRC (Homo sapiens, UniProt P12931); test: as above; type: binding; details: BCWM.1 WM cells, pre-treated 1 hour, various concentrations
T3 construct: endogenous in cells; host or cells: BCWM.1
Experimental: as §1

HCK (pTyr^411) = target: T4, HCK (pTyr^411) (Homo sapiens, UniProt P08631); test: PhosFlow analysis of HCK Tyr411 phosphorylation; type: cell-based; details: MYD88 L265P WM and ABC DLBCL cell lines and primary WM LPC, 0.5 μM, 30 minutes
T4 construct: endogenous in cells; host or cells: BCWM.1 (A3); BCWM.1, MWCL-1, TMD-8 (A8); WM and ABC DLBCL lines and primary WM cells (A12)
Experimental: PhosFlow analysis was performed to delineate HCK phosphorylation. Cells were fixed with BD PhosFlow Fix Buffer I at 37° C. for 10 min. Cells were then centrifuged (300×g for 5 min) and washed twice with PhosFlow Perm/Wash Buffer I (BD Pharmingen). […] Following staining, cells were incubated in the dark for 30 min at room temperature, then washed thrice with BD PhosFlow Perm/Wash Buffer I, followed by anti-Rabbit IgG DyLight®-649 secondary antibody (Abcam), and incubated for an additional 20 min. Cells were then washed twice with BD PhosFlow Perm/Wash Buffer I and flow analysis performed using a BD™ FACSCanto II Flow Cytometer.
(§2) We also evaluated tumor cell viability by the CellTiter-Glo® Luminescent cell viability assay, and apoptosis by propidium iodide and Annexin V staining to determine if HCK inhibition contributed to WM cell death.

[2] = system: mutated MYD88 expressing WM and ABC DLBCL cell lines; test: CellTiter-Glo Luminescent cell viability assay; type: cell-based
Experimental: Apoptosis analysis was performed using Annexin V/Propidium iodide staining with the Apoptosis Detection Kit I (BD Pharmingen, San Jose Calif.). Cells (1×10^6/well) were treated in 24 well plates for 18 hours with inhibitors or corresponding controls. A minimum of 10,000 events were acquired using a BD™ FACSCanto II flow cytometer, and analyzed with BD FACS DIVA Software. For WM patient cells, BMMC (2×10^6/well) were treated with inhibitors, and CD19-APC-cy7 antibody (BD Pharmingen) was used with Annexin V antibody to analyze WM cell apoptosis. AlamarBlue® cell viability assay (Life Technologies, Carlsbad Calif.) was used to assess cell death following inducible HCK knockdown. For these experiments, transduced cells (1×10^5/ml) were cultured with tetracycline, and aliquoted every other day on days 1-11. […] Aliquoted plates were read in a SpectraMax M3 plate reader (Molecular Devices, Sunnyvale, Calif.). Relative cell survival was calculated as percentage of fluorescence relative to scrambled control. […] Luminescent measurement was performed using the 2104 Envision® Multilabel Reader (PerkinElmer Inc.).
as §2

[3] = system: MYD88^WT cell lines or healthy donor B-cells; test: Apoptosis by propidium iodide and Annexin V staining; type: cell-based; details: data not shown
Experimental: (§3) Apoptosis analysis was performed using Annexin V/Propidium iodide staining with the Apoptosis Detection Kit I (BD Pharmingen, San Jose Calif.). Cells (1×10^6/well) were treated in 24 well plates for 18 hours with inhibitors or corresponding controls. A minimum of 10,000 events were acquired using a BD™ FACSCanto II flow cytometer, and analyzed with BD FACS DIVA Software. For WM patient cells, BMMC (2×10^6/well) were treated with inhibitors, and CD19-APC-cy7 antibody (BD Pharmingen) was used with Annexin V antibody to analyze WM cell apoptosis. AlamarBlue® cell viability assay (Life Technologies, Carlsbad Calif.) was used to assess cell death following inducible HCK knockdown. For these experiments, transduced cells (1×10^5/ml) were cultured with tetracycline, and aliquoted every other day on days 1-11. AlamarBlue® solution ( 1/10 total volume) was added to cells and incubated for 2 hours. Aliquoted plates were read in a SpectraMax M3 plate reader (Molecular Devices, Sunnyvale, Calif.). Relative cell survival was calculated as percentage of fluorescence relative to scrambled control. The CellTiter-Glo® Luminescent cell viability assay (Promega, Madison Wis.) was used to assess the dose-response of inhibitors. Cells were seeded into 384 well plates with the EL406 Combination Washer Dispenser (BioTek Instruments, Inc.) and inhibitors injected into the cells culture media with the JANUS Automated Workstation (PerkinElmer Inc., Waltham Mass.). Cells were treated with serial diluted inhibitors […] for 72 hours at 37° C. Luminescent measurement was performed using the 2104 Envision® Multilabel Reader (PerkinElmer Inc.).
as §2

[4] = system: mutated MYD88 cell lines and primary WM cells; test: as above; type: cell-based; details: 0.5 μM, 18 hours
Experimental: as §3, §2

BCWM.1 WM cells = test: Dose dependent tumor cell survival of BCWM.1 cells transduced with BTK or HCK vectors; type: cell-based
Text: as §2

TMD-8 ABC DLBCL cells = test: Cell viability of TMD-8 cells transfected with BTK vectors; type: cell-based; details: FIG. 8B
HCK [5] = target: T5, HCK (Homo sapiens, UniProt P08631); details: read-out: IC50 kinase activity of HCK; cited from earlier work
LYN [6] = target: T1, LYN; test: Kinase active-site inhibition assay (ATP-biotin probe, western blot) in BCWM.1 cells; type: binding; design: endogenous in cells; host or cells: BCWM.1; details: BCWM.1 WM cells, pre-treated 1 hour, various concentrations
Experimental: as §1

HCK [7] = target: T5, HCK; test: as above; type: binding; design: endogenous in cells; host or cells: BCWM.1 (A3); BCWM.1, MWCL-1, TMD-8 (A8); WM and ABC DLBCL lines and primary WM cells (A12); details: BCWM.1 WM cells, pre-treated 1 hour, various concentrations
Experimental: as §1

CD19+ bone marrow cells = test: Apoptosis by flow cytometry in cells from a WM patient resistant to ibrutinib; type: cell-based, human
Experimental: Apoptosis analysis was performed using Annexin V/Propidium iodide staining with the Apoptosis Detection Kit I (BD Pharmingen, San Jose Calif.). Cells (1×10^6/well) were treated in 24 well plates for 18 hours with inhibitors or corresponding controls. A minimum of 10,000 events were acquired using a BD™ FACSCanto II flow cytometer, and analyzed with BD FACS DIVA Software. For WM patient cells, BMMC (2×10^6/well) were treated with inhibitors, and CD19-APC-cy7 antibody (BD Pharmingen) was used with Annexin V antibody to analyze WM cell apoptosis. AlamarBlue® cell viability assay (Life Technologies, Carlsbad Calif.) was used to assess cell death following inducible HCK knockdown. For these experiments, transduced cells (1×10^5/ml) were cultured with tetracycline, and aliquoted every other day on days 1-11. AlamarBlue® solution ( 1/10 total volume) was added to cells and incubated for 2 hours. Aliquoted plates were read in a SpectraMax M3 plate reader (Molecular Devices, Sunnyvale, Calif.). Relative cell survival was calculated as percentage of fluorescence relative to scrambled control. The CellTiter-Glo® Luminescent cell viability assay (Promega, Madison Wis.) was used to assess the dose-response of inhibitors. […] Luminescent measurement was performed using the 2104 Envision® Multilabel Reader (PerkinElmer Inc.).

CD5+CD19+ PBMC cells = test: Apoptosis ex vivo in cells from a CLL patient resistant to ibrutinib; type: cell-based, human; details: DMSO 11.9%

| SMILES | inhibition at 1 µM (LYN [1]; BCWM.1 cells) [%] | inhibition at 1 µM (LYN [1]; MWCL-1 cells) [%] | KiNativ profiling, FYN, SRC, YES (labeling site Activation Loop) (FYN, SRC, YES; BCWM.1 cells) | KiNativ profiling, FYN, SRC, YES (labeling site Activation Loop) (FYN, SRC, YES; MWCL-1 cells) | blocking of ATP binding to SRC (SRC) | change in HCK Tyr411 phosphorylation (HCK (pTyr^411)) | apoptotic activity [3] | apoptotic changes [4] | blocking of ATP binding to LYN (LYN [6]) | blocking of ATP binding to HCK (HCK [7]) | further results |
| --- | --- | --- | --- | --- | --- | --- | --- | --- | --- | --- | --- |
| C=CC(=O)N1CCC[C@@H](n2nc(-c3ccc(Oc4ccccc4)cc3)c3c(N)ncnc32)C1 [Ibrutinib] | 60.5 | 80.6 |  |  |  |  |  |  |  |  |  |
| C=CC(=O)Nc1cccc(Nc2nc(Nc3ccc(OCCOC)cc3)ncc2F)c1 [CC-292] |  |  | 10.5 | −0.4 | did not block ATP binding to either SRC or LYN | little or no impact on HCK Tyr^411 phosphorylation | little or no apoptotic activity | little or no impact on apoptosis | did not block ATP binding to either SRC or LYN | not CC-292 blocked ATP binding to HCK | blocking of ATP binding to BTK (BTK): blocked ATP binding to BTK; higher EC50 in viability assay ([2]; mutated MYD88 cell lines except OCI-Ly3, 72 hours): > 1 log-fold; potency for tumor cell killing in BTK^C481S expressing cells versus wild-type BTK or control vector (BCWM.1 WM cells; BCWM.1 WM cells, FIG. 8A): reduced potency; change in tumor cell killing with HCK^T333M or wild-type HCK (BCWM.1 WM cells; BCWM.1 transduced to express HCK^T333M or wild-type HCK): No substantial change in tumor cell killing; potency for tumor cell killing in BTK^C481S expressing cells versus wild-type BTK or control vector (TMD-8 ABC DLBCL cells): decreased the potency; IC50 (HCK [5]): 14.6 µM; KiNativ profiling, LYN inhibition (labeling site Lys1) (LYN [1]; BCWM.1 cells): 15.7; KiNativ profiling, LYN inhibition (labeling site Lys1) (LYN [1]; MWCL-1 cells): 14.2 |
| CN1CCN([C@H]2CC[C@H](n3cc(-c4ccc(Oc5ccccc5)cc4)c4c(N)ncnc43)CC2)CC1 [A419259] | > 99 | > 99 | >99 | 98.1 | blocked ATP binding to the SRC family members SRC and LYN | reduced HCK Tyr^411 phosphorylation | little or no apoptotic activity | Increased apoptotic changes | blocked ATP binding to the SRC family members SRC and LYN | blocked ATP binding to HCK in a dose-dependent manner | dose-dependent viability ([2]; 72 hours, more pronounced in mutated MYD88 than MYD88 WT cells): Decreased dose-dependent viability; apoptotic cells (CD19+ bone marrow cells; 0.1 μM): 20.8%; apoptotic cells (CD19+ bone marrow cells; 0.5 μM): 24.6%; apoptotic cells (CD5+CD19+ PBMC cells; 0.1 μM): 18.4%; apoptotic cells (CD5+CD19+ PBMC cells; 0.5 μM): 25.6% |
